Legend:
D(3) dopamine receptor = D(3) dopamine receptor (Homo sapiens, UniProt P35462); test: biochemical; assay type: cell-based, HEK293
D(4) dopamine receptor = molecular target: T1, D(4) dopamine receptor (Homo sapiens, UniProt P21917); test: Displacement of [125I]-IABN from human D4 receptor expressed in HEK293 cell membranes after 60 mins by filtration binding assay
T1 sequence (P21917 whole entry): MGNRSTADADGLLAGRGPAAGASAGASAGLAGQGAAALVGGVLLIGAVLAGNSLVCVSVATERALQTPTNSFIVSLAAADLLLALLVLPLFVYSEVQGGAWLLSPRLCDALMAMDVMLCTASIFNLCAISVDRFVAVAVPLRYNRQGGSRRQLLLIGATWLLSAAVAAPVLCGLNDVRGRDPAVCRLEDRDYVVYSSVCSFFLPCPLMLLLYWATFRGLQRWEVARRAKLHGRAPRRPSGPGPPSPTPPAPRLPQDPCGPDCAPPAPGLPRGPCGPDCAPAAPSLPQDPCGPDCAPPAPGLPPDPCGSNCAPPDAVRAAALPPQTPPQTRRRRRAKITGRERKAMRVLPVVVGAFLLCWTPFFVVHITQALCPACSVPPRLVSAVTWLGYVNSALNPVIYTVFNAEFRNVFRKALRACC

Homo sapiens = species on record: Homo sapiens; test: Selectivity index, ratio of Ki for D4 receptor to Ki for human D3 receptor
[1] = molecular target: T2, 5-hydroxytryptamine receptor 1A (Homo sapiens, UniProt P08908); test: Displacement of [3H]8-OH-DPAT from human 5HT1A receptor after 60 mins by filtration binding assay
T2 sequence (P08908 whole entry): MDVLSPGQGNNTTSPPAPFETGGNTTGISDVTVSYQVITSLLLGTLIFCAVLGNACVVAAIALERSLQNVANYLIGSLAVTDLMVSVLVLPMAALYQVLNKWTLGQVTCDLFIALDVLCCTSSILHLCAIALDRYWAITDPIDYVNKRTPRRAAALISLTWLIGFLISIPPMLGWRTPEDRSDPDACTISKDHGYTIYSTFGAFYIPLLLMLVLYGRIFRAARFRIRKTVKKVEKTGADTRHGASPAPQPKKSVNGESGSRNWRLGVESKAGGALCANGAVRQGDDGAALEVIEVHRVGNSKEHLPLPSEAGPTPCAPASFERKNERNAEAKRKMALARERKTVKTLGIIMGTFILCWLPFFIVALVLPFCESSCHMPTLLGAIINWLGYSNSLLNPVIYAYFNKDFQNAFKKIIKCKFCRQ

D(2) dopamine receptor = D(2) dopamine receptor (Homo sapiens, UniProt P14416); test: biochemical; assay type: cell-based, HEK293
Chain of D(2) dopamine receptor (P14416 whole entry): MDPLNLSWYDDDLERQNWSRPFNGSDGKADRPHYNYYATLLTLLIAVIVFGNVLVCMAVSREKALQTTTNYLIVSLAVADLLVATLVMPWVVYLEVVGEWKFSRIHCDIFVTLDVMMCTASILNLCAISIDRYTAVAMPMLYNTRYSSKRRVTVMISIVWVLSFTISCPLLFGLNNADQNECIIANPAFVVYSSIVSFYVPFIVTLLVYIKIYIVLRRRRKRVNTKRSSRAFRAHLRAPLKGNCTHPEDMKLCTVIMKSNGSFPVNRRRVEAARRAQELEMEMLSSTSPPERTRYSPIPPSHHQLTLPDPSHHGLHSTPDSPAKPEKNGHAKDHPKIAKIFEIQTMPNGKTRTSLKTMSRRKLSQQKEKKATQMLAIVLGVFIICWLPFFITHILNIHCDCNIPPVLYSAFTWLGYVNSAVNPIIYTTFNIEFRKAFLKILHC

Chain of D(3) dopamine receptor (P35462 whole entry): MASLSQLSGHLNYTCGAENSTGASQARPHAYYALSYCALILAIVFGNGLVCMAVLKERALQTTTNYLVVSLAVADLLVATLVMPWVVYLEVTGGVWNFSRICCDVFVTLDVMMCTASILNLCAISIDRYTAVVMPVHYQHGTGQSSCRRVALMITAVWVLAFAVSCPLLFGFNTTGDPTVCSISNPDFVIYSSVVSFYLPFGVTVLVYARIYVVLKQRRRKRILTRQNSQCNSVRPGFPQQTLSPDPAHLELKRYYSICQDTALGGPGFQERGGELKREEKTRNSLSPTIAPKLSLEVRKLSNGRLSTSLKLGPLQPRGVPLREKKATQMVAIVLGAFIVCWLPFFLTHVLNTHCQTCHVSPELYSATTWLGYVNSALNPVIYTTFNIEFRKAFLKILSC

Row | Compound | Ki (D(3) dopamine receptor) [nM] | Ki (D(4) dopamine receptor) [nM] | Ratio Ki (Homo sapiens) | Ki [1] [nM] | Ki (D(2) dopamine receptor) [nM]
1 | COc1ccccc1N1CCN(CCCCc2cn(-c3ccc(N(C)C)cc3)nn2)CC1 | 13.9 | 758 | 55 | 9.4 | 171
2 | COc1ccccc1N1CCN(CCCCc2cn(-c3ccc(F)cc3)nn2)CC1 | 6.5 | – | – | – | 46.7
3 | COc1ccccc1N1CCN(CCCCc2cn(-c3ccc(SC)cc3)nn2)CC1 | 2.1 | 200 | 95 | 5.3 | 37.7
4 | COc1ccccc1N1CCN(CCCc2cn(-c3cccc4cnccc34)nn2)CC1 | 36.3 | – | – | – | 79.3
5 | COc1ccccc1N1CCN(CCCCc2cn(-c3ccccc3OC)nn2)CC1 | 25.4 | – | – | – | 139
6 | COc1ccccc1N1CCN(CCCc2cn(-c3ccccc3OC)nn2)CC1 | 93.1 | – | – | – | 272
7 | COc1ccccc1N1CCN(CCCc2cn(-c3ccccc3)nn2)CC1 | 22.2 | – | – | – | 64
8 | COc1ccccc1N1CCN(CCCCc2cn(-c3ccccc3)nn2)CC1 | 4.7 | – | – | – | 30.9
9 | COc1ccccc1N1CCN(CCCCCc2cn(-c3ccc(N(C)C)cc3)nn2)CC1 | 6.7 | – | – | – | 62.6
10 | COc1ccccc1N1CCN(CCCCc2cn(-c3cccc4cnccc34)nn2)CC1 | 3.7 | 875 | 237 | 6 | 42.3
11 | COc1ccccc1N1CCN(CCCCc2cn(-c3ccc(-c4ccsc4)cc3)nn2)CC1 | 8.2 | 395 | 48 | 1.3 | 94.3
12 | COc1ccccc1N1CCN(CCCCCc2cn(-c3ccccc3)nn2)CC1 | 3.1 | – | – | – | 19.4
13 | COc1ccccc1N1CCN(CCCc2cn(-c3ccc(F)cc3)nn2)CC1 | 26.5 | – | – | – | 73.5
14 | COc1ccccc1N1CCN(CCCCCc2cn(-c3ccccc3OC)nn2)CC1 | 21.1 | – | – | – | 62.7
15 | COc1ccccc1N1CCN(CCCc2cn(-c3ccc(-c4ccsc4)cc3)nn2)CC1 | 8.9 | 90 | 10 | 7.4 | 158
16 | COc1ccccc1N1CCN(CCCCCc2cn(-c3cccc4cnccc34)nn2)CC1 | 1.8 | 186 | 103 | 5.8 | 17.7
17 | COc1ccccc1N1CCN(CCCc2cn(-c3ccc(SC)cc3)nn2)CC1 | 9.6 | – | – | – | 44.1
18 | COc1ccccc1N1CCN(CCCCNC(=O)c2ccc(N(C)C)cc2)CC1 | – | – | 1120 | 7.5 | –
19 | COc1ccccc1N1CCN(CCCCCc2cn(-c3ccc(F)cc3)nn2)CC1 | 3.2 | – | – | – | 23.7
20 | COc1ccccc1N1CCN(CCCCc2cn(-c3ccccc3O)nn2)CC1 | 2.9 | – | – | – | 9.4
21 | COc1ccccc1N1CCN(CCCc2cn(-c3ccc(N(C)C)cc3)nn2)CC1 | 29.6 | – | – | – | 162
22 | COc1ccccc1N1CCN(CCCCCc2cn(-c3ccc(SC)cc3)nn2)CC1 | 2.3 | 227 | 99 | 3.9 | 26.6
23 | COc1ccccc1N1CCN(CCCCCc2cn(-c3ccc(-c4ccsc4)cc3)nn2)CC1 | 6.3 | 163 | 26 | 153 | 109
24 | COc1ccccc1N1CCN(CCCc2cn(-c3ccccc3O)nn2)CC1 | 6.8 | – | – | – | 12.8

Reference: ChEMBL document CHEMBL3352598, “Synthesis, pharmacological evaluation and molecular modeling studies of triazole containing dopamine D3 receptor ligands” (Bioorg Med Chem Lett, 2015)
